Data reported in US6518035B1, “Targeted methods of drug screening using co-culture methods” (Rosetta Inpharmatics, Inc., priority 1998, dated 2003).
Counter-ions that a name gives are not always drawn. Like-named read-outs stand apart in the source and are kept apart here.

What was measured:
[1] = target: T1, ERG11 gene product, lanosterol 14α-demethylase (Saccharomyces cerevisiae, UniProt P10614); assay: TDS co-culture pilot study with clotrimazole: ERG11/GFP-overexpressing target cells mixed with decoy cells, fluorescence readout; assay type: cell-based; details: 30° C., 88 h
T1 construct: expressed in transfected cells; host or cells: S. cerevisiae target strain ABY676 (plasmids pAB98 GFP, pAB99 ERG11), co-cultured with decoy strain ABY674 (empty vectors YEplac195, YEplac112)
T1 sequence (P10614 whole entry): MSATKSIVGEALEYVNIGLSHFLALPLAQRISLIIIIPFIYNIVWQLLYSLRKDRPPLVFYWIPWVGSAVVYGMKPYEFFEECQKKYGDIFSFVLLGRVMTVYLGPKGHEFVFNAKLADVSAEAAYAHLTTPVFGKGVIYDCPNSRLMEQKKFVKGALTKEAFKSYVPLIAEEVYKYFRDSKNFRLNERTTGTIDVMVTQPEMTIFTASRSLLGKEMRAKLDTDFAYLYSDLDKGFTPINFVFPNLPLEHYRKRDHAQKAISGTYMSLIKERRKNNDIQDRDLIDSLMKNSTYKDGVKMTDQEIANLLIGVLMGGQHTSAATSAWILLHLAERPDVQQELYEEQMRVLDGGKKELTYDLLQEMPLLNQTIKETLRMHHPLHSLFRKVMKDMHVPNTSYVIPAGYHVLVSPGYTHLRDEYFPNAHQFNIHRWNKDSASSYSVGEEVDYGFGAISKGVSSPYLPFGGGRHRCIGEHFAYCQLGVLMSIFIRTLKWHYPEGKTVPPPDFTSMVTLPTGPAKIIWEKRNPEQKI
Experimental: FIG. 2: A Signal to noise ratios of ERG11-target and decoy co-cultures grown in the presence of clotrimazole. Cultures were prepared at various ratios of target: decoy cells (columns). Each ratio was also prepared at various total number of cells per well and are indicated at the top. Clotrimazole, which inhibits the ERG11 gene product, was introduced by serial dilution (rows). The concentrations of clotrimazole are indicated to the left of the table. The volume of medium in each well was 0.225 ml. The plate was allowed to incubate at 30° C. for 88 h. Fluorescence signal was determined by subtracting the fluorescent values from a medium control plate from the fluorescence values of each well in the test plate. Signal to noise ratios were determined by dividing these corrected values with the corresponding values in the no-drug well in the bottom row. B O.D.600 values of co-cultures in each well after growth. C A fluorescent image of the source plate.
To determine the optimal assay conditions, various target:decoy ratios were tested in the presence of different clotrimazole concentrations (FIG. 2). Clotrimazole is an anti-fungal compound that inhibits the […] gene product, lanosterol 14α-demethylase, a sterol biosynthetic enzyme (Georgopapadakou and Walsh, 1996, Antimicrob Agents Chemother 40:279-291). […]
Target and decoy cells were mixed at 1:10, 1:100 and 1:1000 ratios in the presence of various concentrations of clotrimazole. […] Following incubation at 30° C. for 88 h, the fluorescence from each well was determined. The fluorescent values were corrected for the background fluorescence of the medium are represented as the fold increase over the fluorescent signal from the corresponding no-drug treatment.
The amount of growth of the cells was determined by measuring optical density at 600 nm in a Molecular Devices Spectra Max 250 plate spectrophotometer (FIG. 2B). A fluorescent image of the plate, which served as the source for quantitation of the fluorescent signals, is also presented (FIG. 2C).

[2] = target: Erg11p (Saccharomyces cerevisiae, UniProt P10614); details: 25 target and 25,000 decoy cells (1:1000), 225 μl, 30° C., up to ten days
Sequence of Erg11p (P10614 whole entry): as above
Experimental: Target yeast cells overexpressing the ERG11 gene and GFP were mixed with decoy cells at a ratio of 1:1000 and portioned into 96-well plates. Each well contained 25 target cells and 25,000 decoy cells in 0.225 ml YM medium plus 2% casamino acids. 560 generic drugs from the MicroSource™ library were dispensed to each well to a final concentration of 5 μg/ml or 0.5 μg/ml and 1% DMSO. The plates were incubated at 30° C. for ten days.
To determine the specificity of the TDS assay, a chemical library of 560 compounds was screened using the same strains described in FIG. 2. […] The conditions chosen for the co-culture were 25 target cells and 25,000 decoy cells (1:1000 target: decoy ratio) in a volume of 225 μl.
Overnight cultures of the target and decoy cells were grown in YM medium plus 2% casamino acids to maintain selection for both episomal plasmids. One large batch of fresh medium (YM-Cas) was prepared that contained both target and decoy cells. This culture was diluted to 1×10^5 cells/ml and dispensed into the 96-well plates. Drugs from the Microsource library were then added to the cultures at two concentrations: 5 μg/ml plus 1% DMSO; and 0.5 μg/ml plus 0.1% DMSO. The plates were incubated at 30° C. Fluorescence and O.D.600 measurements were taken twice daily for ten days.

[3] = test system: yeast target and decoy cells; assay: Growth (O.D.600) of the target/decoy yeast co-cultures in the MicroSource library screen; assay type: cell-based, Saccharomyces cerevisiae; details: both concentrations (5 μg/ml and 0.5 μg/ml)
Experimental: The plates were incubated at 30° C.

Structure (SMILES) | fluorescent signal of co-culture versus no-drug treatment ([2]; 0.5 μg/ml drug plus 0.1% DMSO) | fluorescent signal of co-culture versus no-drug treatment ([2]; 5 μg/ml drug plus 1% DMSO) | growth inhibition of co-culture [3] | also measured
Clc1ccccc1C(c1ccccc1)(c1ccccc1)n1ccnc1 [clotrimazole] | significant fluorescent signal | significant fluorescent signal |  | clotrimazole concentration range producing significant fluorescent signals ([1]; 1:10 and 1:100 target:decoy ratios, highest density of cells per well): 0.2 to 5.6 µg/mL; clotrimazole concentration range producing significant fluorescent signals ([1]; 1:10 and 1:100 target:decoy ratios, serial dilutions of cells): 0.2 to 2.8 µg/mL; clotrimazole concentration range producing significant fluorescent signals ([1]; 1:1000 target:decoy ratio, each of the cell densities): 0.2 to 5.6 µg/mL
CCCCOc1ccc(C(=O)CCN2CCCCC2)cc1 [dyclonine-HCl] |  |  | severely inhibited growth | 
CN[C@@H](C)[C@H](O)c1ccccc1 [ephedrine-HCl] |  |  | severely inhibited growth | 
CC(=O)N1CCN(c2ccc(OCC3COC(Cn4ccnc4)(c4ccc(Cl)cc4Cl)O3)cc2)CC1 (stereo not drawn) [ketoconazole] | neither inhibited growth nor produced a positive signal | significant signal |  | 
Clc1ccc(COC(Cn2ccnc2)c2ccc(Cl)cc2Cl)c(Cl)c1 (stereo not drawn) [miconazole] | significant positive signals | too severe a growth inhibition to produce positive signals |  | 
C[CH2][Hg][S]c1ccccc1C(=O)[O-].[Na+] [thimerosol] |  |  | severely inhibited growth | 
